The test system of one series is KBM7 CUL4Bmut cells. The series is described as follows: cells. It counts as cell-based. Here is the method:
(§1) KBM7 cells with the specified genetic backgrounds were grown in IMDM supplemented with 10% FBS and 1% penicillin/streptomycin (pen/strep). AsPC1, HCT116, NCI-H446 and 293T cells were grown in DMEM 10% FBS and 1% pen/strep. MV4; 11, Jurkat and Be (2) C cells were grown in RPMI 10% FBS 1% pen/strep. KBM7, AsPC1 and HCT116 cells expressing Cas9 were generated using the plasmid Lenti_Cas9_Blasti (Addgene #52962). The lentiviral plasmid lentiGuide-Puro (Addgene #52963) was used to express sgRNAs against the genes UBE2M (in KBM7-Cas9, AsPC1-Cas9 and HCT116-Cas9 cells), UBE2G1 (in KBM7-Cas9 cells) and […] (in KBM7-Cas9 cells). The lentiviral plasmid lentiGuide-Puro-IRES-mCherry (modified from Addgene #52963) was used to express sgRNAs against CUL4A (in KBM7-Cas9 cells). The lentiviral plasmid pLenti-PGK-Hygro-DEST-UBE2M was generated by Gateway cloning (empty destination vector Addgene #19066), and used to generate UBE2M^resc KBM7 cells. […]
(§2) Finally, a total of structurally similar analogs was tested to unravel structure-activity relationship of the identified molecules. To that end, their anti-cancer activity was assayed in WT cells, as well as KBM7 cells deficient in genes identified in the genome-wide CRISPR screens (UBE2M, CUL4B, UBE2G1). Moreover, the compounds were also tested in AsPC1 pancreatic cancer cells (WT or UBE2Mmut), MV4; 11 and Jurkat leukemia cells, Be (2) C neuroblastoma cells, and NCI-H446 lung cancer cells (Table 3 at the end of this document)
(§3) KBM7^WT, mutant KBM7 clones (UBE2M^mut, UBE2M^resc, UBE2G1^mut CUL4A^mut, CUL4B^mut), and 3-day doxycycline pretreated KBM7^iCas9_sgDDB1 cells were seeded at a cell density of 50,000 cells/mL in 96-well plates with DMSO or drug, in triplicates. Drugs used: IC020772.1/IC020772.1X, IC021313.2/IC021313.2X, T6938051/T6938051X or THZ531. Cells were treated for 3 days, after which cell viability was assessed according to manufacturer's protocol (CellTiter Glo, Promega G7570). Survival curves and EC50 values were calculated by best-fit analysis of the log 10 drug concentration to fold change of drug-treated cells over DMSO-treated cells. All survival assays included technical triplicates per sample, per experiment.

A further series relates to KBM7 UBE2G1mut cells. The series is described as follows: cells. The series is classed as cell-based. Here is the method:
as §1, §2, §3

The test system of a further series is KBM7-Cas9 cells. The series can be described thus: CRISPR/Cas9 resistance screens (genome-wide Brunello and CRL-focused sgRNA libraries). Particulars: two weeks continuous drug treatment, start 4xEC50. It counts as cell-based, human. Here is the method:
293T cells seeded on 15 cm culture plates 16h before were transfected with 5 μg Brunello pooled library (Addgene #73178; 2-vector system), 2.5 μg pMD2.G (Addgene #12259), and 3.75 μg psPAX2 (Addgene #12260) using PolyFect (Qiagen) according to the manufacturer's protocol. Viral supernatant was harvested 72h after transfection and concentrated using Lenti—X-concentrator (Takara), according to the manufacturer's protocol. Concentrated viral supernatant was stored in aliquots at −80° C. and titrated to achieve a MOI of 0.2-0.3.
250 million KBM7-Cas9 cells were transduced at MOI 0.23, yielding a calculated library representation of 668 cells/sgRNA (library representation=50 million cells). For transduction, 20 μL of concentrated viral supernatant was added to 5 million cells in 1.5 mL IMDM and 8 μg/mL polybrene in 6-well plates. Plates were centrifuged at 2000 rpm for 1 h at 30° C. in a benchtop centrifuge, 0.5 mL IMDM were added and then incubated at 37° C. overnight. The next day, transduced cells were pooled and diluted. Pools were selected with 1 μg/mL puromycin for 5 days. Three independent resistance screens were performed with the library using drugs at starting concentrations of 4×EC50. Selective drug treatment was performed on 50 million cells/drug at a seeding density of 500,000 cells/mL. Every 5 days, cells were pooled, counted and re-seeded to 50 million cells in 100 mL, applying fresh drug. […]
De-multiplexed raw reads were processed to count sgRNA spacer abundance using a custom script. The first 20 bp of the trimmed reads were collected and aligned against the Brunello spacer index using Bowtie2. Spacers were counted using cut-f 3|sort|uniq -c on the aligned SAM files. […] Log 2 fold changes of drug treatment vs DMSO were calculated from normalized counts, omitting spacers with no reads in the DMSO condition. The enrichment rank of each spacer sequence was expressed as a fraction of the total number of spacers, so that the most enriched spacer is assigned a perturbation strength of 1, in accordance with the STARS algorithm. […]

Results on 3 molecules are retold here after patent US12410152B2, “Oxazole and thioazole-type cullin ring ubiquitin ligase compounds and uses thereof” (Proxygen GmbH, priority 2019, dated 2025).

Each structure is given as a SMILES string.

As usually defined, the CC50 is the concentration giving 50% cytotoxicity.

On to `O=C(CSc1nc2ccccc2[nH]1)Nc1ccc(Cl)cn1` [IC021313.2], for which the CC50 with KBM7 CUL4Bmut cells is 15.7 µM; in the series on KBM7 UBE2G1mut cells, 4.34 µM. For the same molecule, in the series on KBM7-Cas9 cells, the “gene enrichment in drug-tolerant populations (genome-wide CRISPR screen)” value (“gene enrichment” below) was “striking enrichment in only four genes”.

For the molecule `Cc1ccc(C(=O)N2CSCC2C(=O)N=c2[nH]cc(C)s2)o1` (stereo not drawn) [Compound T6938051], the results for the CC50 in the series with KBM7 CUL4Bmut cells and in the series on KBM7 UBE2G1mut cells were 110 µM and 3.47 µM, respectively. In addition, the “gene enrichment” value in the series with KBM7-Cas9 cells was “striking enrichment in only four genes”.

As to `O=C(CSc1nnc2c(n1)[nH]c1ccccc12)Nc1ccc(Cl)cn1` [IC020772.1], the cytotoxic concentration (CC50) was 7.53 µM in the series on KBM7 CUL4Bmut cells and 2 µM in the series with KBM7 UBE2G1mut cells. Also, the “gene enrichment” value with KBM7-Cas9 cells was “striking enrichment in only four genes”.
